Experimental data from patent publication US20240033237A1, “USE OF A-KETOGLUTARATE IN MANUFACTURE OF MEDICAMENT” (TONGJI UNIVERSITY, priority 2019, published 2024).

System: chondrocytes
Experiment: Amino acid content in chondrocytes upon IL-1β stimulation, LC-MS
Assay type: cell-based, mouse
Conditions: IL-1β treatment for 36 h, untreated 8740.24±584.31
Method: Mouse chondrocytes were obtained from 7-day-old C57BL/6 mice (Shanghai Slac laboratory animal Co., Ltd.), and the procedure was as follows: under aseptic surgical conditions, bilateral knee cartilages of C57 mice were carefully stripped and digested with 0.2% neutral collagenase (Serva, Germany) for 8 h; cell precipitates were obtained by centrifugation, and the cells were resuspended in modified Eagle medium (DMEM) (Gibco, USA) containing 10% FBS, inoculated in culture dishes, and cultured with high-sugar DMEM medium (containing 10% FBS, 100 U/mL penicillin and 100 mg/L streptomycin) at 37° C. in a 5% CO2 constant temperature incubator. The medium was changed for the first time at 48 h. […] The cells were collected by centrifugation and resuspended, and the concentration was adjusted for inoculation in culture dishes. The cells were subcultured by the above method, and the obtained cells were labeled as P1, P2, P3 generations, etc. […]
After being treated with IL-1β for 36 h, the chondrocytes were scraped off, and the changes of amino acid content in the chondrocytes were detected by LC-MS.

IL-1β: interleukin-1β used to stimulate chondrocytes
Gln content in chondrocytes: 330±150.32 ng/10^7
